For the experiment, the target named is T1, Alpha-2A adrenergic receptor [16-465] (Rattus norvegicus, UniProt P22909).
T1 construct: 16-465
T1 sequence (P22909 whole entry): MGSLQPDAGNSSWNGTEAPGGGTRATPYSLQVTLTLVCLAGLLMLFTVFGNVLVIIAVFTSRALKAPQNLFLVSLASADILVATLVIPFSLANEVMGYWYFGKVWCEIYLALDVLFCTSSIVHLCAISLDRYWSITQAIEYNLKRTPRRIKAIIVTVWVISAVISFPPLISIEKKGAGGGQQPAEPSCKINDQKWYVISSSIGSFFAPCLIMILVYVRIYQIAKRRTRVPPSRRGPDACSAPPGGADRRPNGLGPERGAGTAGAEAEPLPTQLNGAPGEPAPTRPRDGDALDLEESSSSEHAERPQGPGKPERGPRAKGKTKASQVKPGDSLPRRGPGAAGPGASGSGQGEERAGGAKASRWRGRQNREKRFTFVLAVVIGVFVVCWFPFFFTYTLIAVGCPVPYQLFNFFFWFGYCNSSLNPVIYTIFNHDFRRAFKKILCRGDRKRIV

Molecules are shown by their SMILES.

By Ki is commonly meant a measure of affinity in units of concentration, obtained from inhibition or displacement.

For the compound `Fc1cccc2c1OC1CNCC1O2` (stereo unspecified) [CAS_105182-45-4], the Ki worked out at 1.25 nM.

(Values after BindingDB's records for doi:10.1002/(SICI)1098-2396(200002)35:2<79::AID-SYN1>3.0.CO;2-X (Institut De Recherches Servier, 2000).)
